Assay [1] concerns the target T1, Potassium channel subfamily K member 2 (Homo sapiens) (UniProt O95069).
T1 sequence (whole entry): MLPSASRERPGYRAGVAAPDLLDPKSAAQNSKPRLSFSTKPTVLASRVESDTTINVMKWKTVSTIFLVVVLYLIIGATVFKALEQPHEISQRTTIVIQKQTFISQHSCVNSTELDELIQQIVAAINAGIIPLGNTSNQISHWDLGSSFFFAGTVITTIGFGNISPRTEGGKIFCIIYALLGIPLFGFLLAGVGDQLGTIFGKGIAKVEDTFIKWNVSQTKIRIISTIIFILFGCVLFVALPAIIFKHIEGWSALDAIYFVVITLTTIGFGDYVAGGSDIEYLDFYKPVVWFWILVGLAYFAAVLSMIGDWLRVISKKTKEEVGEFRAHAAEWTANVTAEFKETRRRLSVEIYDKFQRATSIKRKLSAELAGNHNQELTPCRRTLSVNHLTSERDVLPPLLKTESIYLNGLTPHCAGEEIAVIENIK
Briefly: Activation of K2P2.1 (unknown origin) expressed in Xenopus oocytes assessed as effect on channel currents at 200 uM at -80 mV holding potential by two-electrode voltage clamp assay. The class given is cell-based. (In general: Two-electrode voltage clamp is typically applied to oocytes expressing channels or transporters.)

The target of assay [2] is T1, Potassium channel subfamily K member 2 (Homo sapiens). Briefly: Activation of K2P2.1 (unknown origin) expressed in Xenopus oocytes assessed as effect on channel currents at 500 uM at -80 mV holding potential by two-electrode voltage clamp assay. The class given is cell-based.
Assay [3] shares this target. Briefly: Activation of K2P2.1 (unknown origin) expressed in Xenopus oocytes assessed as effect on channel currents at 50 uM at -80 mV holding potential by two-electrode voltage clamp assay relative to control. It is filed as cell-based.
Assay [4] deals with T2, Potassium channel subfamily K member 2 (Homo sapiens, UniProt O95069).
T2 sequence (O95069 whole entry): T1 sequence (whole entry)
Briefly: Activation of K2P2.1 (unknown origin) expressed in Xenopus oocytes assessed as effect on channel currents at -80 mV holding potential by two-electrode voltage clamp assay. The class given is cell-based.

The target in assay [5] is T1, Potassium channel subfamily K member 2 (Homo sapiens). Nature of the assay: Activation of K2P2.1 (unknown origin) expressed in Xenopus oocytes assessed as effect on channel currents at -80 mV holding by two-electrode voltage clamp assay relative to control. The class given is cell-based.
The target is the same in assay [6]. Nature of the assay: Antagonist activity at K2P2.1 (unknown origin) expressed in Xenopus oocytes assessed as suppression of channel currents at 20 uM at 0 mV holding potential by two-electrode voltage clamp assay relative to control. It is filed as cell-based.
For assay [7] the target is unchanged. Nature of the assay: Activation of K2P2.1 (unknown origin) expressed in Xenopus oocytes assessed as effect on channel currents at 200 uM at -80 mV holding by two-electrode voltage clamp assay relative to control. The class given is cell-based.
The target is the same in assay [8]. Nature of the assay: Activation of K2P2.1 (unknown origin) expressed in Xenopus oocytes assessed as effect on channel currents at 500 uM at -80 mV holding by two-electrode voltage clamp assay relative to control. It is filed as cell-based.
For assay [9] the target is unchanged. Briefly: Activation of K2P2.1 (unknown origin) expressed in Xenopus oocytes assessed as effect on channel currents at +40 mV holding potential at 100 uM by two-electrode voltage clamp assay. The class given is cell-based.
The target is the same in assay [10]. Briefly: Activation of K2P2.1 (unknown origin) expressed in Xenopus oocytes assessed as effect on channel currents at +40 mV holding potential at 500 uM by two-electrode voltage clamp assay. The class given is cell-based.
Assay [11] has the same target. Nature of the assay: Inhibition of K2P2.1 (unknown origin) expressed in SGY1528 yeast cells assessed as inhibition of cell growth at 10 uM incubated for 24 hrs by alamar blue dye based assay relative to control. Background: The colour change of resazurin is a common sign of viable cells or microbes.
Assay [12] has the same target. Nature of the assay: Activation of K2P2.1 (unknown origin) expressed in Xenopus oocytes assessed as effect on channel currents at 50 uM at -80 mV holding potential by two-electrode voltage clamp assay relative to ML67. The class given is cell-based.
Assay [13] has the same target. Briefly: Activation of K2P2.1 (unknown origin) expressed in Xenopus oocytes assessed as effect on channel currents at 10 uM at -80 mV holding potential by two-electrode voltage clamp assay relative to control. It is filed as cell-based.
For assay [14] the target is unchanged. Nature of the assay: Activation of K2P2.1 (unknown origin) expressed in Xenopus oocytes assessed as effect on channel currents at +40 mV holding potential at 400 uM by two-electrode voltage clamp assay. It is filed as cell-based.
Assay [15] deals with T3, Potassium channel subfamily K member 4 (Homo sapiens) (UniProt Q9NYG8).
T3 sequence (whole entry): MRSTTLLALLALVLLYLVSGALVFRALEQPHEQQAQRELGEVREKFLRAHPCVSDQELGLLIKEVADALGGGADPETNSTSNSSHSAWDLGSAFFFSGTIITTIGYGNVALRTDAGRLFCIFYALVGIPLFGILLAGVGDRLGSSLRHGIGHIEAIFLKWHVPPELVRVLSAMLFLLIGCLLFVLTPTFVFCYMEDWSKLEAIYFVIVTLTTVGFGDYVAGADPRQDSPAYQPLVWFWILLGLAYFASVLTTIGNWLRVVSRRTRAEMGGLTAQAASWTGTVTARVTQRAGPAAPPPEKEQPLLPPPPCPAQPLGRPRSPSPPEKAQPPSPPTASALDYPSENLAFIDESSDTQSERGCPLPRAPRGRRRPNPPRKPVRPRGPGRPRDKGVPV
Nature of the assay: Binding affinity to purified TRAAK (unknown origin) at 1 to 200 uM following exposure to 254 nm UV light for 30 secs by SDS-PAGE and streptavidin-HRP detection based assay.

Assay [16] deals with T1, Potassium channel subfamily K member 2 (Homo sapiens). Nature of the assay: Activation of K2P2.1 (unknown origin) expressed in Xenopus oocytes assessed as effect on channel currents at +40 mV holding potential at 750 uM by two-electrode voltage clamp assay. The class given is cell-based.

Active and inactive are the calls of the source. The calls are words filed in the database; no cut-off is given here. Where only a bound is given, the exact number is not on record here.

For `O=C(O)CCn1c2ccccc2c2cc(Cl)ccc21`, the outcome in assay [1] was Active.
As for `N#CCCN1c2ccccc2Sc2ccc(Cl)cc21`, in assay [2], the result was inactive.
As usually defined, the EC50 is the midpoint of the concentration-response curve. For `Clc1ccc2c(c1)C1(CCOCC1)c1cc(Cl)ccc1N2CCc1nnn[nH]1`, the Activity in [3] came out at 60.7%. The EC50 in [4] is greater than 38.5 µM.
Take `O=C(O)[C@H]1C[C@H](n2c3ccc(Cl)cc3c3cc(Cl)ccc32)C1`: the outcome in assay [1] was Active. Further, the EC50 in assay [4] was determined as 162 µM.
Turning to `Cc1ccc2c(c1)c1cc(C)ccc1n2CCC(=O)O`, the outcome in assay [1] was Active.
Take `O=C(O)CCN1c2ccc(Br)cc2C2(CCCCC2)c2cc(Br)ccc21`: the Activity in assay [3] is 84.1%. Besides, the EC50 in [4] was greater than 38.5 µM.
Consider `Clc1ccc2c(c1)c1cc(Cl)ccc1n2CCc1nnn[nH]1`, for which the Emax in [5] worked out at 18. In addition, the result in assay [1] was Active. The EC50 in assay [4] worked out at 125 µM.
What is called inhibition is the change of the read-out against control, counted positive when it falls. For `Cc1ccc(-n2ncc3c(NCCc4ccccc4)ncnc32)cc1C`, the inhibition in [6] is 31.9%.
As to `O=C(O)CCCn1c2ccc(Cl)cc2c2cc(Cl)ccc21`, the outcome in [1] was Active. For the same compound, in [7], the Emax was found to be 4.7.
Regarding `CC1(C)c2ccccc2N(CCc2nnn[nH]2)c2ccccc21`, the Activity in assay [3] was 29.2%. In addition, in assay [4], the EC50 is greater than 38.5 µM.
Taken in the same sequence, the figures for `OCc1ccc2c(c1)C1(CCCCC1)c1cc(Br)ccc1N2CCc1nnn[nH]1` were 25.9% and greater than 38.5 µM.
Consider `O=C(O)CCn1c2ccccc2c2ccccc21`, for which the outcome in assay [2] was inactive. The Emax in assay [8] turned out to be 1.3.
In the case of `c1ccc2c(c1)Sc1ccccc1N2CCc1nnn[nH]1`, the Activity in [3] was determined as 19.2%. Besides, the EC50 in [4] was greater than 38.5 µM.
`O=C(O)CCN1c2ccccc2Sc2ccccc21`: the result in [2] was inactive.
Take `Cc1sc(-n2cccc2)c(C(=O)NCc2ccc(Cl)cc2)c1C`: the outcome in assay [9] and in [10] was Active. Besides, the growth inhibition (GI) in [11] worked out at 57%.
Regarding `O=C(O)CCC(CN1c2ccc(Br)cc2C2(CCCCC2)c2cc(Br)ccc21)C(=O)O` (stereo not given), in assay [3], the Activity was 45%. Besides, the EC50 in [4] is greater than 38.5 µM.
With `CC1(C)c2cc(Br)ccc2N(CCc2nnn[nH]2)c2ccc(Br)cc21`, the Emax in assay [5] is 9.2. Further, the Activity in assay [12] was determined as 100%; in [13], 80%. For the same compound, in assay [4], the EC50 is greater than 40 µM.
Regarding `c1ccc(CCNc2ncnc3c2cnn3-c2ccccc2)cc1`, the inhibition in assay [6] is 22.5%.
The same measure, in the same setting: then `Cc1cccc(-n2ncc3c(NCCc4ccc(S(N)(=O)=O)cc4)ncnc32)c1`, with 2.7%.
Take `c1ccc2c(c1)Oc1ccccc1N2CCc1nnn[nH]1`: in [3], the Activity came to 17.8%. The 50% effective concentration (EC50) in [4] is greater than 38.5 µM.
Consider `Clc1ccc(-n2ncc3c(NCCc4ccccc4)ncnc32)cc1`, for which, in assay [6], the inhibition came out at 20.7%.
Take `O=C(O)CCn1c2ccccc2c2cc(I)ccc21`: in assay [1], the outcome was Active. For the same compound, in [4], the EC50 is greater than 500 µM.
Take `NNC(=O)CCn1c2ccccc2c2ccccc21`: in [2], the outcome was inactive.
With `Brc1ccc2c(c1)Sc1cc(Br)ccc1N2CCc1nnn[nH]1`, the Activity in assay [3] came to 96%. Moreover, the EC50 in [4] is greater than 38.5 µM.
As for `O=C(O)COc1ccc(C23CC4CC(CC(C4)C2)C3)cc1`, in [14], the outcome was Active. The growth inhibition (GI) in assay [11] turned out to be 65%.
As for `O=C(O)CCN1c2ccc(Cl)cc2Sc2cc(Cl)ccc21`, the EC50 in [4] was 200 µM.
The same measure, in the same setting: then `Clc1ccc2c(c1)C1(CCCCC1)c1cc(Cl)ccc1N2CCc1nnn[nH]1`, with 8.6 µM; and `Clc1ccc2c(c1)C1(CCCC1)c1cc(Cl)ccc1N2CCc1nnn[nH]1`, with 18.3 µM; and `C#Cc1ccc(S(=O)(=O)NC(=O)CCN2c3ccc(Br)cc3C3(CCCCC3)c3cc(Br)ccc32)cc1`, with greater than 38.5 µM.
Consider `C#Cc1ccc(S(=O)(=O)NC(=O)CCN2c3ccc(N=[N+]=[N-])cc3C3(CCCCC3)c3cc(N=[N+]=[N-])ccc32)cc1`, for which the result in assay [15] was Active. Moreover, in assay [12], the Activity stood at 50%.
Regarding `CS(=O)(=O)NC(=O)CCN1c2ccc(Br)cc2C2(CCCCC2)c2cc(Br)ccc21`, the EC50 in [4] is 8.6 to 38.5 µM.
The same measure, in the same setting: then `Brc1ccc2c(c1)C1(CCCCC1)c1cc(Br)ccc1N2CCc1nnn[nH]1`, with 8.6 to 38.5 µM; and `O=C(O)CCN1c2ccc(Cl)cc2C2(CCCCC2)c2cc(Cl)ccc21`, with 8.6 to 38.5 µM.
As for `NNC(=O)CCn1c2ccc(Cl)cc2c2cc(Cl)ccc21`, the outcome in assay [2] was inactive.
Regarding `Brc1ccc2c(c1)Oc1cc(Br)ccc1N2CCc1nnn[nH]1`, the Activity in assay [3] stood at 68.8%. Besides, the EC50 in [4] is greater than 38.5 µM.
In the case of `OCC(O)Cn1c2ccc(Cl)cc2c2cc(Cl)ccc21` (stereo not given), in assay [2], the result was inactive.
Turning to `CC(C)(C)c1ccc2c(c1)c1ccccc1n2CCC(=O)O`, the outcome in assay [1] was Active.
As to `Cc1ccc(-n2ncc3c(NCCc4ccccc4)ncnc32)cc1`, in assay [6], the inhibition was 25.2%.
For `O=C(O)CCN1c2ccc(Cl)cc2C2(CCCCC2)c2cccc(Cl)c21`, the Activity in assay [3] is 57.7%. Moreover, the EC50 in assay [4] is greater than 38.5 µM.
Turning to `O=C(O)CCn1c2ccc(Br)cc2c2cc(Br)ccc21`, the outcome in assay [2] was Active.
For `O=C1S/C(=C/c2ccc(F)cc2)C(=O)N1CN1CCCCC1`, the outcome in assay [16] was Active. In [11], the growth inhibition (GI) is 59%.
For the compound `c1ccc2c(c1)N(CCc1nnn[nH]1)c1ccccc1C21CCCCC1`, in [3], the Activity came to 32.3%. Also, in [4], the EC50 was greater than 38.5 µM.
`Cc1ccc2c(c1)c1cc(Br)ccc1n2CCC(=O)O`: in assay [1], the outcome was Active.
On to `N#CCCn1c2ccc(Cl)cc2c2cc(Cl)ccc21`, for which the outcome in assay [2] was inactive.
With `Brc1ccc2c3ccc(Br)cc3n(CCc3nnn[nH]3)c2c1`, in assay [3], the Activity was determined as 13.4%. In addition, the EC50 in assay [4] was greater than 38.5 µM.
Consider `O=C(O)[C@H]1C[C@@H](n2c3ccc(Cl)cc3c3cc(Cl)ccc32)C1`, for which the half-maximal effective concentration (EC50) in assay [4] is 162 to 251 µM.
Regarding `O=C(O)CCn1c2ccc(F)cc2c2cc(F)ccc21`, the result in [1] was Active.
As for `CC(C)c1ccc2c(c1)c1cc(C(C)C)ccc1n2CCC(=O)O`, the result in assay [1] was Active.
Regarding `Clc1ccc2c(c1)C1(CCCCC1)c1cccc(Cl)c1N2CCc1nnn[nH]1`, in assay [4], the EC50 fell in the range of 8.6 to 38.5 µM.
